The results in this text go back to paper doi:10.1101/2020.12.17.423223v1 (biorxiv, 2020).

Common to all, as to experiment: two-electrode voltage clamp, Xenopus oocytes
Common to all, as to assay type: cell-based
For orientation: Two-electrode voltage clamp is typically applied to oocytes expressing channels or transporters.

The target of one experiment is T1, Pun-GLC-2/GLC-3 (Parascaris univalens, UniProt A0A894K4V1+A0A894KE58).
T1 construct: full-length subunits co-expressed 1:1 (cRNA) in Xenopus laevis oocytes; heteromeric, pentameric GluCl, stoichiometry unknown
T1 sequence (A0A894KE58 21-448): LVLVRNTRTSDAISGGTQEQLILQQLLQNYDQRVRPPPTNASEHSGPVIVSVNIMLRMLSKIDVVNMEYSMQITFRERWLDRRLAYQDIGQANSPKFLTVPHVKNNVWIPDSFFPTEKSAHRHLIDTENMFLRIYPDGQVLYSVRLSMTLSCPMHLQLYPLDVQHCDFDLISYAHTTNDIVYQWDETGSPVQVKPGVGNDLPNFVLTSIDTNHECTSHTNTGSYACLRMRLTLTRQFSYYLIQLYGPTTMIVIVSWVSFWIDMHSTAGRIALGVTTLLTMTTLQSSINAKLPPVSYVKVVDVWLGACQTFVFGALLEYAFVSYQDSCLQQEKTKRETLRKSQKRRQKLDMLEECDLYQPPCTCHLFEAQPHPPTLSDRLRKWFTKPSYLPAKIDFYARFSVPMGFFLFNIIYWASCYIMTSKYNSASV
T1 sequence (A0A894K4V1 25-485): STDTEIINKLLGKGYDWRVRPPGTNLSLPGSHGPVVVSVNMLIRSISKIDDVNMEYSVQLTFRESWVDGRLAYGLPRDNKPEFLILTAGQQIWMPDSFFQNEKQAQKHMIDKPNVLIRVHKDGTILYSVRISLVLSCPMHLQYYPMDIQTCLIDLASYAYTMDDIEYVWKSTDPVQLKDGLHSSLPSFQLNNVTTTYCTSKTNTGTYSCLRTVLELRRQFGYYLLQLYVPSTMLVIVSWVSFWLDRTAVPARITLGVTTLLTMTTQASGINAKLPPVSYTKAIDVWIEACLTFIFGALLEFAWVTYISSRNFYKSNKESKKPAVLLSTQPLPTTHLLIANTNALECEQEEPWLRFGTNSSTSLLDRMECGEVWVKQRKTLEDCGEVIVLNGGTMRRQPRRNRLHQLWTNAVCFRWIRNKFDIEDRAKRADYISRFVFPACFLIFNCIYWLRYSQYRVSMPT

Another experiment has as its target T2, Cel-AVR-14B/GLC-2 (Caenorhabditis elegans, UniProt Q17328+Q17369).
T2 construct: full-length subunits co-expressed 1:1 (cRNA) in Xenopus laevis oocytes; heteromeric, pentameric GluCl, stoichiometry unknown; b70 prints CAA04170 for AVR-14B, which b73 gives to AVR-15B
T2 sequence (Q17369 22-430): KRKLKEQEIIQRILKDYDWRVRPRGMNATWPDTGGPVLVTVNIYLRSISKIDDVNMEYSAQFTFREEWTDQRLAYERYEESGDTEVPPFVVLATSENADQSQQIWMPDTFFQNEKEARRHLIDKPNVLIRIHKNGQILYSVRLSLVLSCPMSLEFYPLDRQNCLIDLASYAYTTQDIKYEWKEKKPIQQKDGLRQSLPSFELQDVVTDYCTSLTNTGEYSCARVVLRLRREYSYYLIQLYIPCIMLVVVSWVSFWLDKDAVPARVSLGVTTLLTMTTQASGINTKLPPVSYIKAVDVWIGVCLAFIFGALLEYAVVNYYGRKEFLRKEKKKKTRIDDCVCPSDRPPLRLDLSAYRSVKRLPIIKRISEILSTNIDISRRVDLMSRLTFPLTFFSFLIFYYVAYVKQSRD
T2 sequence (Q17328 23-434): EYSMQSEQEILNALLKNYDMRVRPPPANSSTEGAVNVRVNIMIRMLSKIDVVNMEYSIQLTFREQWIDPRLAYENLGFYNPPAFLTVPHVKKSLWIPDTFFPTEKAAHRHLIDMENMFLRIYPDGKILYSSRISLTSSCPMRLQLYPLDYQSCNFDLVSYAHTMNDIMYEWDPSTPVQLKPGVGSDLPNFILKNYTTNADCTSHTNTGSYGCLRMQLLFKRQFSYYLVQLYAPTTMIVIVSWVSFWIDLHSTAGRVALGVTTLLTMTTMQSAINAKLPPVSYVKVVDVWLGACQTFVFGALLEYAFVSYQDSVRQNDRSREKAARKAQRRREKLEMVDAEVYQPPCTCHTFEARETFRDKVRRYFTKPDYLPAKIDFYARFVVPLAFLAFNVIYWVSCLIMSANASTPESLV

For another experiment, the target named is T3, Pun-AVR-14B/GLC-2 (Parascaris univalens, UniProt A0A894K7G1+A0A894KE58).
T3 construct: full-length subunits co-expressed 1:1 (cRNA) in Xenopus laevis oocytes; heteromeric, pentameric GluCl, stoichiometry unknown
T3 sequence (A0A894K7G1 19-428): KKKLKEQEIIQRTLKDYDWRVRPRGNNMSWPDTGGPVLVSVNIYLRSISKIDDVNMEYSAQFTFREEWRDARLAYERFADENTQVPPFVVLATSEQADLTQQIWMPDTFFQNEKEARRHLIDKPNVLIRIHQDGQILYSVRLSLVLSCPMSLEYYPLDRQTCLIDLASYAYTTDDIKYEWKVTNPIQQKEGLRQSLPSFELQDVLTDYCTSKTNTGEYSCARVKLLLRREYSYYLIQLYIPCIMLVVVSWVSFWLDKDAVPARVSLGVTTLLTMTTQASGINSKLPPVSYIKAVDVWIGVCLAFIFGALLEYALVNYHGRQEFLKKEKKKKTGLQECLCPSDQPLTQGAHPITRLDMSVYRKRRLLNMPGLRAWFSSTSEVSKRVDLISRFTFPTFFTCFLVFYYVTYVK
T3 sequence (A0A894KE58 21-448): T1 sequence (A0A894KE58 21-448)

The next experiment has as its target T4, Pun-GLC-3 (Parascaris univalens, UniProt A0A894K4V1).
T4 construct: full-length, expressed singly (cRNA) in Xenopus laevis oocytes; homomeric pentameric GluCl
T4 sequence (A0A894K4V1 25-485): T1 sequence (A0A894K4V1 25-485)

A further experiment addresses T5, Cel-AVR-14B (Caenorhabditis elegans, UniProt Q17369).
T5 construct: full-length, expressed singly (cRNA) in Xenopus laevis oocytes; homomeric pentameric GluCl; b70 prints CAA04170 for AVR-14B, which b73 gives to AVR-15B
T5 sequence (Q17369 22-430): T2 sequence (Q17369 22-430)

The target of another experiment is T6, Cel-GLC-2 (Caenorhabditis elegans, UniProt Q17328).
T6 construct: full-length, expressed singly (cRNA) in Xenopus laevis oocytes; homomeric pentameric GluCl
T6 sequence (Q17328 23-434): T2 sequence (Q17328 23-434)

In a further experiment the target is T7, Cel-GLC-2/GLC-3 (Caenorhabditis elegans, UniProt G5EEZ3+Q17328).
T7 construct: full-length subunits co-expressed 1:1 (cRNA) in Xenopus laevis oocytes; heteromeric, pentameric GluCl, stoichiometry unknown
T7 sequence (Q17328 23-434): T2 sequence (Q17328 23-434)
T7 sequence (G5EEZ3 23-484): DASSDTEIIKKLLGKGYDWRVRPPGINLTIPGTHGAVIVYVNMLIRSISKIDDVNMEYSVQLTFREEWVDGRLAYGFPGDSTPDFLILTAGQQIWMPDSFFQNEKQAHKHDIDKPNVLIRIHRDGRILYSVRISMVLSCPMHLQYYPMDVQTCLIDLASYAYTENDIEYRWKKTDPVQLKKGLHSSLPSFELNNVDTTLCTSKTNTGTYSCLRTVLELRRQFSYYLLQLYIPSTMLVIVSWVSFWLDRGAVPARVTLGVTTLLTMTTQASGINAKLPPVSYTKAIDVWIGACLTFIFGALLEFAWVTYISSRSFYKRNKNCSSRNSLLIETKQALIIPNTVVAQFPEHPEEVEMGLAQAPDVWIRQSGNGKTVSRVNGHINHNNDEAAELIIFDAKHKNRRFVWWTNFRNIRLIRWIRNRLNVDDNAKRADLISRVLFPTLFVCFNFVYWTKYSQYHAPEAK

The EC50 is the concentration needed to bring the measured effect to its halfway point. A low value points to higher potency in that assay.

Regarding `N[C@@H](CCC(=O)O)C(=O)O` [glutamate], the EC50 at Pun-GLC-2/GLC-3 came to 120 ± 5.7 µM; on Cel-AVR-14B/GLC-2, 20.5 ± 1.3 µM; on Pun-AVR-14B/GLC-2, 13.6 ± 1.6 µM; at Pun-GLC-3 it was 1480 ± 111 µM; at Cel-AVR-14B, 112 ± 13 µM; at Cel-GLC-2 it was 215 ± 13.1 µM. This compound registered an EC50 at Cel-GLC-2/GLC-3 of 46.8 ± 3.7 µM.
